From patent US20100081661A1, “HEME OXYGENASE INHIBITORS, SCREENING METHODS FOR HEME OXYGENASE INHIBITORS AND METHODS OF USE OF HEME OXYGENASE INHIBITORS FOR ANTIMICROBIAL THERAPY” (UNIVERSITY OF MARYLAND, BALTIMORE, priority 2006, published 2010)
Like-named read-outs stand apart in the source and are kept apart here.

What was measured:
[1] = target: pa-HO (Pseudomonas aeruginosa, UniProt O69002); format: binding; conditions: for NMR sat. transfer: Table 2, paHO; for NMR pa-HO: Table 3A; as to NMR pa-HO: key: Shows binding by NMR method = +; Ambig = ambiguous
[2] = test system: P. aeruginosa; assay: MIC50 for P. aeruginosa; format: cell-based, Pseudomonas aeruginosa; conditions: for minimum inhibition conc / MIC: Table 2; for MIC: read-out: minimum inhibition conc
[3] = target: nm-HO (Neisseria meningitidis, UniProt Q9AH50); format: cell-based; conditions: Table 2; colour of cell pellet (white = no biliverdin, green = biliverdin) or toxicity to cells
[4] = Pseudomonas aeruginosa, Table 3B, P. aeruginosa, read-out: MIC 50
[5] = Pseudomonas aeruginosa, Table 3A, read-out: MIC 50

Chain of pa-HO (O69002 1-198): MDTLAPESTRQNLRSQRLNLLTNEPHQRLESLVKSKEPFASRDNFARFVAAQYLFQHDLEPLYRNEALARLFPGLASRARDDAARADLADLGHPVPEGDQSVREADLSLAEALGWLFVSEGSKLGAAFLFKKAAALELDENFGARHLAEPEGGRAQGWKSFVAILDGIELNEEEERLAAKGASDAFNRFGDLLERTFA
Chain of nm-HO (Q9AH50 1-209): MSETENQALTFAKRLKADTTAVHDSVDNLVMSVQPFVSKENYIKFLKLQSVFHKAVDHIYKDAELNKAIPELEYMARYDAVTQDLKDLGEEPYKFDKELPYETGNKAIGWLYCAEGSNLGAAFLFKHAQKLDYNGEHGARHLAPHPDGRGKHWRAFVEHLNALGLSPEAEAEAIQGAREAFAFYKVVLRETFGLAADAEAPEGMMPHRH

Row | Structure (SMILES) | NMR sat. transfer [1] | other results
1 | C(=N\Nc1nc(-c2cccnc2)cs1)/c1cccnc1 [Compound 3] | Alias: CB-28 fluorescence binding: nd minimum inhibition conc: nd NMR sat. transfer: does not bind paHO | –
2 | O=C(O)Cn1c(=O)c2cc3c(=O)n(CC(=O)O)c(=O)c3cc2c1=O [Compound 4] | Alias: CB-2 fluorescence binding: nd minimum binding conc: nd NMR sat. transfer: do not bind paHO | –
3 | O=C(O)CN1C(=O)c2ccccc2C1=O [Compound 5] | Alias: CB-4 fluorescence binding: nd minimum inhibition conc: nd NMR sat. transfer: binds paHO | –
4 | Cc1ccccc1C(=O)Nc1cc(C(=O)O)cc(C(=O)O)c1 [Compound 6] | Alias: CB-17 fluorescence binding: nd minimum inhibition conc: nd NMR sat. transfer: binds paHO | –
5 | O=C(CNC(=O)c1cccnc1)N/N=C/c1ccccn1 [Compound 9] | Alias: CD-21 fluorescence binding: nd minimum inhibition conc: nd NMR sat. transfer: do not bind paHO | –
6 | O=C(CNc1ccc2ccccc2c1)N/N=C/c1ccccn1 [Compound 10] | Alias: CD-8 fluorescence binding: nd minimum inhibition conc: nd NMR sat. transfer: do not bind paHO | –
7 | O=C(N/N=C/c1ccc(O)cc1O)c1cccnc1 [Compound 11] | Alias: CD-20 fluorescence binding: nd minimum inhibition conc: nd NMR sat. transfer: do not bind paHO | –
8 | NCCNS(=O)(=O)c1cccc(C(=O)O)c1 [Compound 18] | Alias: Spec-7 fluorescence binding: nd minimum inhibition conc: nd NMR sat. transfer: do not bind paHO | –
9 | Cc1n[nH]c(Nc2ccccc2F)c1[N+](=O)[O-] [Compound 20] | Alias: CD-6 fluorescence binding: nd minimum inhibition conc: nd NMR sat. transfer: do not bind paHO | –
10 | NC(=O)NC(=O)C[n+]1ccc(C(N)=O)cc1 [Compound 34] | Alias: CD-3 fluorescence binding: nd minimum inhibition conc: nd NMR sat. transfer: do not bind paHO | –
11 | O=C(O)CSc1ncnc2ccccc12 [Compound 36] | binds paHO | NMR pa-HO [1]: +; minimum inhibition conc [2]: no antibacterial activity; MIC 50 (ug/ml) ([2]; Table 3A): no antibact activity
12 | Cc1ccc(NC(=O)c2cnccn2)cc1Cl [Compound 38] | Alias: CB-24 fluorescence binding: nd minimum inhibition conc: nd NMR sat. transfer: does not bind paHO | –
13 | Cc1cccc(NC(=O)c2ccc(C(=O)Nc3cccc(C)n3)cc2)n1 [Compound 39] | Alias: CB-20 fluorescence binding: nd minimum inhibition conc: nd NMR sat. transfer: tested, ambiguous | –
14 | O=C(NCc1ccco1)c1cc(C(=O)NCc2ccco2)cc([N+](=O)[O-])c1 [Compound 40] | Alias: CB-25 fluorescence binding: nd minimum inhibition conc: nd NMR sat. transfer: does not bind paHO | –
15 | O=C(Oc1ccc(OC(=O)c2ccco2)cc1)c1ccco1 [Compound 47] | Alias: CB-3 fluorescence binding: nd minimum inhibition conc: nd NMR sat. transfer: do not bind paHO | –
16 | O=C(O)CCC(=O)Nc1ccc(Oc2ccccc2)cc1 [Compound 48] | do not bind paHO | E. coli assay [3]: white pellet
17 | O=C(O)CCn1ncc2ccccc21 [Compound 51] | Alias: CD-5 fluorescence binding: nd minimum inhibition conc: nd NMR sat. transfer: do not bind paHO | –
18 | O=C(O)c1c[nH]c2c(ccc3ccccc32)c1=O [Compound 52] | Alias: Spec-2 fluorescence binding: nd minimum inhibition conc: nd NMR sat. transfer: do not bind paHO | –
19 | N#CCc1ccc(NC2=NS(=O)(=O)c3ccccc32)cc1 [Compound 56] | Alias: CD-16 fluorescence binding: nd minimum inhibition conc: nd NMR sat. transfer: do not bind paHO | –
20 | O=C(O)c1ccc2c(c1)-c1nc3ccccc3n1C2=O [Compound 57] | Alias: CD-4 fluorescence binding: nd minimum inhibition conc: nd NMR sat. transfer: do not bind paHO | –
21 | CC(=O)Oc1ccc(-c2cccc(C(=O)O)c2)cc1 [Compound 61] | yes, bind to paHO | NMR pa-HO [1]: +; minimum inhibition conc [2]: no antibacterial activity; MIC 50 (ug/ml) ([2]; Table 3A): no antibact activity
22 | O=C(O)c1cc(-c2cccnc2)nc2ccccc12 [Compound 62] | Alias: CB-23 fluorescence binding: nd minimum inhibition conc: nd NMR sat. transfer: does not bind paHO | –
23 | c1cncc(CNCc2cccnc2)c1 [Compound 64] | Alias: Spec-12 fluorescence binding: nd minimum inhibition conc: nd NMR sat. transfer: do not bind paHO | –
24 | Cc1nc(NCCCC(=O)O)c2ccccc2n1 [Compound 71] | Alias: Spec-6 fluorescence binding: nd minimum inhibition conc: nd NMR sat. transfer: do not bind paHO | –
25 | COc1ccc(C(=O)COC(=O)/C=C/c2ccccc2)cc1 [Compound 74] | Alias: CB-1 fluorescence binding: nd minimum inhibition conc: nd NMR sat. transfer: do not bind paHO | –
26 | O=C(O)c1ccc2c(c1)C(=O)N(c1ccc(Cl)cc1)C2=O [Compound 77] | Alias: CB-16 fluorescence binding: nd minimum inhibition conc: nd NMR sat. transfer: binds paHO | –

Row | Structure (SMILES) | NMR sat. transfer [1] | other results
27 | Cc1ccc(CN2CCN(Cc3ccccc3)CC2)cc1 [Compound 80] | Alias: CB-10 fluorescence binding: nd minimum inhibition conc: nd NMR sat. transfer: binds paHO | –
28 | O=[N+]([O-])c1cccc(CN2CCNCC2)c1 [Compound 83] | yes, bind paHO | NMR pa-HO [1]: +; minimum inhibition conc [2]: no antibacterial activity; MIC 50 (ug/ml) ([2]; Table 3A): no antibact activity
29 | Cc1cc(-c2ccc(F)cc2)nc2cc(C(=O)O)nn12 [Compound 85] | yes, bind paHO | NMR pa-HO [1]: +; MIC50 [2, 4]: > 1000 µg/mL; minimum inhibition conc [2]: no antibacterial activity; MIC 50 (ug/ml) ([2]; Table 3A): no antibact activity
30 | CCN1CCN(CCN)CC1 [Compound 90] | Alias: CD-19 fluorescence binding: nd minimum inhibition conc: nd NMR sat. transfer: do not bind paHO | –
31 | NC(=O)c1ccc[n+](-c2ccccc2)c1 [Compound 91] | Alias: Spec-10 fluorescence binding: nd minimum inhibition conc: nd NMR sat. transfer: do not bind paHO | –
32 | CN(C)CCN(C)Cc1cccc2ccccc12 [Compound 98] | Alias: CB-12 fluorescence binding: nd minimum inhibition conc: nd NMR sat. transfer: binds paHO | –
33 | CC(N)c1ccc2ccccc2c1 (stereo not shown) [Compound 103] | yes, bind paHO | NMR pa-HO [1]: +; MIC ([2]; Pseudomonas aeruginosa): > 250 µg/mL; MIC50 [2, 5]: > 250 µg/mL; MIC50 ([2]; Table 3B, P. aeruginosa): >250 µg/mL
34 | COc1cc(/C=N/Cc2ccco2)ccc1O [Compound 104] | Alias: CD-13 fluorescence binding: nd minimum inhibition conc: nd NMR sat. transfer: do not bind paHO | –
35 | Nc1nonc1-c1noc(-c2cccnc2O)n1 [Compound 113] | Alias: CD-17 fluorescence binding: nd minimum inhibition conc: nd NMR sat. transfer: do not bind paHO | –
36 | Cc1cc(C(=O)O)nn1-c1ccccc1 [Compound 115] | yes, bind paHO | NMR pa-HO [1]: +; MIC50 [2, 4]: > 1000 µg/mL; minimum inhibition conc [2]: no antibacterial activity; MIC 50 (ug/ml) ([2]; Table 3A): no antibact activity
37 | N#Cc1ncc(-c2ccccc2)nc1C#N [Compound 120] | Alias: Spec-15 fluorescence binding: nd minimum inhibition conc: nd NMR sat. transfer: do not bind paHO | –
38 | C=CCNC(=O)C(=O)Nc1ccc(C(C)C)cc1 [Compound 124] | Alias: CB-30 fluorescence binding: nd minimum inhibition conc: nd NMR sat. transfer: tested, ambiguous | –
39 | NCC(=O)N(O)Cc1ccccc1 [Compound 127] | yes, bind paHO | NMR pa-HO [1]: +; MIC ([2]; Pseudomonas aeruginosa): > 1000 µg/mL; MIC50 [2, 5]: > 1000 µg/mL; MIC50 ([2]; Table 3B, P. aeruginosa): >1000 µg/mL
40 | C=CCn1c(S)cc2sc3c(c2c1=O)CCN(C)C3 [Compound 128] | Alias: Spec-4 fluorescence binding: nd minimum inhibition conc: nd NMR sat. transfer: do not bind paHO | –
41 | NCC(O)(c1ccc(Cl)cc1)c1ccc(Cl)cc1 [Compound 131] | yes, bind paHO | NMR pa-HO [1]: +; MIC ([2]; Pseudomonas aeruginosa): > 250 µg/mL; MIC50 [2, 5]: > 250 µg/mL; MIC50 ([2]; Table 3B, P. aeruginosa): >250 µg/mL
42 | CC(C)c1ccc(CN2CCN(CCO)CC2)cc1 [Compound 132] | Alias: CB-13 fluorescence binding: nd minimum inhibition conc: nd NMR sat. transfer: tested, ambiguous | –
43 | CCc1ccc2[nH]c3nc(N/N=C/c4ccc(O)cc4)nnc3c2c1 [Compound 139] | Alias: CB-27 fluorescence binding: nd minimum inhibition conc: nd NMR sat. transfer: does not bind paHO | –
44 | Oc1ccccc1/C=N/Nc1nnn[nH]1 [Compound 140] | Alias: CB-11 fluorescence binding: nd minimum inhibition conc: nd NMR sat. transfer: binds paHO | –
45 | Nc1nnnn1/N=C/c1cc2c(cc1[N+](=O)[O-])OCO2 [Compound 143] | Alias: CB-19 fluorescence binding: nd minimum inhibition conc: nd NMR sat. transfer: binds paHO | –
46 | O=CNc1nonc1NNc1ccccc1 [Compound 144] | Alias: CB-15 fluorescence binding: nd minimum inhibition conc: nd NMR sat. transfer: tested, ambiguous | –
47 | CN1CCN(CCCn2cnc3c2c(=O)n(C)c(=O)n3C)CC1 [Compound 145] | Alias: CB-14 fluorescence binding: nd minimum inhibition conc: nd NMR sat. transfer: tested, ambiguous | –
48 | O=C1OC(c2ccccc2)=N/C1=C\Nc1cccc([N+](=O)[O-])c1 [Compound 147] | Alias: CB-26 fluorescence binding: nd minimum inhibition conc: nd NMR sat. transfer: does not bind paHO | –
49 | O=C(O)c1ccc2c(c1)C(=O)N(CCO)C2=O [Compound 151] | Alias: CB-8 fluorescence binding: nd minimum inhibition conc: nd NMR sat. transfer: binds paHO | –
50 | Cn1c(=O)c(CC(=O)C(=O)O)nc2ccccc21 [Compound 152] | yes, bind paHO | NMR pa-HO [1]: +; MIC50 [2, 4]: > 1000 µg/mL; minimum inhibition conc [2]: no antibacterial activity; MIC 50 (ug/ml) ([2]; Table 3A): no antibact activity
51 | Cn1c(=N)n(CC(=O)O)c2ccccc21 [Compound 153] | Alias: CD-9 fluorescence binding: nd minimum inhibition conc: nd NMR sat. transfer: do not bind paHO | –
